Patent publication US20210317134A1, “UBIQUITIN-SPECIFIC-PROCESSING PROTEASE 7 (USP7) MODULATORS AND USES THEREOF” (RAPT THERAPEUTICS, INC., priority 2019, published 2021)

Molecular target: USP7 (Homo sapiens, UniProt Q93009)
Experiment: USP7 inhibitory potency (Table 1)
Format: biochemical

Sequence of USP7 (Q93009 whole entry): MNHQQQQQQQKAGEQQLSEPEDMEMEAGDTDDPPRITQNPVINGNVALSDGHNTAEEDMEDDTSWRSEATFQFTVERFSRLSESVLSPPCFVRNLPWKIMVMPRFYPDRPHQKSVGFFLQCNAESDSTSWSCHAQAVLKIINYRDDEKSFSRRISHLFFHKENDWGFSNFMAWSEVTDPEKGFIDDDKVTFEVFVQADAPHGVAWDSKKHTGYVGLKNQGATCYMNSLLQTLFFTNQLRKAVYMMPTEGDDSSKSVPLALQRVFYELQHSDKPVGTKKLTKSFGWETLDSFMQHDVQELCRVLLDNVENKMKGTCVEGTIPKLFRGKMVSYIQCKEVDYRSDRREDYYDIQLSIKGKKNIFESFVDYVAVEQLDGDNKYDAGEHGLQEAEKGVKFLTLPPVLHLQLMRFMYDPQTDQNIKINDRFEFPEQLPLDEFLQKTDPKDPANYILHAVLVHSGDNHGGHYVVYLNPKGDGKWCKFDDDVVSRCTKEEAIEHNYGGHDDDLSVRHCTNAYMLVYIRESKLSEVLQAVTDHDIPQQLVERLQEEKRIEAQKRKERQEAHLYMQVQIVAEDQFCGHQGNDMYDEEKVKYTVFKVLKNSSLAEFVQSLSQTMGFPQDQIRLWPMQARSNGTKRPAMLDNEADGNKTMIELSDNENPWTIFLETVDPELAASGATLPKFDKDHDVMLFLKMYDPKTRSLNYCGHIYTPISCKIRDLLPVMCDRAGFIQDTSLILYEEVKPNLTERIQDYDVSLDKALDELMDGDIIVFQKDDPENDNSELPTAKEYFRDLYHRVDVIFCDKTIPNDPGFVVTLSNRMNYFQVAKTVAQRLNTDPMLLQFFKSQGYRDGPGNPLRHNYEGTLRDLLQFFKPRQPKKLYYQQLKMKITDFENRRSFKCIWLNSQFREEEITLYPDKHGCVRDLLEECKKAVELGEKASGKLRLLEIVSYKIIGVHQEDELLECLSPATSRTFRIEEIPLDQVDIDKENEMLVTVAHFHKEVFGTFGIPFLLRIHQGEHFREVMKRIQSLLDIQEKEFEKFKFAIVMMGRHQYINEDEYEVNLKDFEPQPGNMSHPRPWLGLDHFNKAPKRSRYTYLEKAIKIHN

| SMILES | IC50 |
| --- | --- |
| O=C(C1Cc2cc(Cl)cc(-c3ccnc4ccc(F)cc34)c2O1)N1CCNCC1 (centres unmarked) [(5-chloro-7-(6-fluoroquinolin-4-yl)-2,3-dihydrobenzofuran-2-yl)(piperazin-1-yl)methanone] | 1 to 10 µM |
| COc1ccc2nccc(-c3cc(Cl)cc4c3OC(C(=O)N3CCNCC3)C4)c2c1 (centres unmarked) [(5-chloro-7-(6-methoxyquinolin-4-yl)-2,3-dihydrobenzofuran-2-yl)(piperazin-1-yl)methanone] | 10 to 30 µM |
| O=C(C1Cc2cc(Cl)cc(-c3ccnc4cc(CO)ccc34)c2O1)N1CCNCC1 (centres unmarked) [(5-chloro-7-(7-(hydroxymethyl)quinolin-4-yl)-2,3-dihydrobenzofuran-2-yl)(piperazin-1-yl)methanone] | 1 to 10 µM |
| O=C(C1Cc2cc(Cl)cc(-c3ccnc4cc(C(F)(F)F)ccc34)c2O1)N1CCNCC1 (centres unmarked) [(5-chloro-7-(7-(trifluoromethyl)quinolin-4-yl)-2,3-dihydrobenzofuran-2-yl)(piperazin-1-yl)methanone] | 1 to 10 µM |
| O=C(C1Cc2cc(Cl)cc(-c3ccnc4c(F)cccc34)c2O1)N1CCNCC1 (centres unmarked) [(5-chloro-7-(8-fluoroquinolin-4-yl)-2,3-dihydrobenzofuran-2-yl)(piperazin-1-yl)methanone] | 10 to 30 µM |
| COc1cccc2c(-c3cc(Cl)cc4c3OC(C(=O)N3CCNCC3)C4)ccnc12 (centres unmarked) [(5-chloro-7-(8-methoxyquinolin-4-yl)-2,3-dihydrobenzofuran-2-yl)(piperazin-1-yl)methanone] | 10 to 30 µM |
| O=C(C1Cc2cc(Cl)cc(-c3ccnc4c3ccn4Cc3ccccc3)c2O1)N1CCNCC1 (centres unmarked) [(7-(1-Benzyl-1H-pyrrolo[2,3-b]pyridin-4-yl)-5-chloro-2,3-dihydrobenzofuran-2-yl)(piperazin-1-yl)methanone] | 10 to 30 µM |
| O=C(C1Cc2cc(Cl)cc(-c3ccnc(NCc4ccccc4)c3)c2O1)N1CCNCC1 (centres unmarked) [(7-(2-(benzylamino)pyridin-4-yl)-5-chloro-2,3-dihydrobenzofuran-2-yl)(piperazin-1-yl)methanone] | 1 to 10 µM |
| Nc1cc(-c2cc(Cl)cc3c2OC(C(=O)N2CCNCC2)C3)ccn1 (centres unmarked) [(7-(2-Aminopyridin-4-yl)-5-chloro-2,3-dihydrobenzofuran-2-yl)(piperazin-1-yl)methanone] | 1 to 10 µM |
| Cc1c(-c2cc(Cl)cc3c2OC(C(=O)N2CCNCC2)C3)ccnc1N (centres unmarked) [(7-(2-amino-3-methylpyridin-4-yl)-5-chloro-2,3-dihydrobenzofuran-2-yl)(piperazin-1-yl)methanone] | 1 to 10 µM |
| O=C(C1Cc2cc(Cl)cc(-c3ccnc4[nH]c(Cc5ccccc5)cc34)c2O1)N1CCNCC1 (centres unmarked) [(7-(2-benzyl-1H-pyrrolo[2,3-b]pyridin-4-yl)-5-chloro-2,3-dihydrobenzofuran-2-yl)(piperazin-1-yl)methanone] | 1 to 10 µM |
| OCc1cc2nccc(-c3cc(Cl)cc4c3OC(c3nnn5c3CNCC5)C4)c2s1 (centres unmarked) [(7-(5-chloro-2-(4,5,6,7-tetrahydro-[1,2,3]triazolo[1,5-a]pyrazin-3-yl)-2,3-dihydrobenzofuran-7-yl)thieno[3,2-b]pyridin-2-yl)methanol] | 1 to 10 µM |
| OCc1cc2nccc(-c3cc(Cl)cc4c3OC(c3onc5c3CNCC5)C4)n2n1 (centres unmarked) [(7-(5-chloro-2-(4,5,6,7-tetrahydroisoxazolo[4,3-c]pyridin-3-yl)-2,3-dihydrobenzofuran-7-yl)pyrazolo[1,5-a]pyrimidin-2-yl)methanol] | 1 to 10 µM |
| CC1(c2onc3c2CNCC3)Cc2cc(Cl)cc(-c3ccnc4cc(CO)sc34)c2O1 (centres unmarked) [(7-(5-chloro-2-methyl-2-(4,5,6,7-tetrahydroisoxazolo[4,3-c]pyridin-3-yl)-2,3-dihydrobenzofuran-7-yl)thieno[3,2-b]pyridin-2-yl)methanol] | < 1 µM |
| Cn1nc2c(c1[C@H]1Cc3cc(Cl)cc(-c4ccnc5cc(CO)sc45)c3O1)CC(N1CCC1)CC2 (stereo partly drawn) [(7-((2R)-2-(5-(azetidin-1-yl)-2-methyl-4,5,6,7-tetrahydro-2H-indazol-3-yl)-5-chloro-2,3-dihydrobenzofuran-7-yl)thieno[3,2-b]pyridin-2-yl)methanol] | < 1 µM |
| CN(C)C1CCc2noc([C@H]3Cc4cc(Cl)cc(-c5ccnc6cc(CO)sc56)c4O3)c2C1 (stereo partly drawn) [(7-((2R)-5-chloro-2-(5-(dimethylamino)-4,5,6,7-tetrahydrobenzo[c]isoxazol-3-yl)-2,3-dihydrobenzofuran-7-yl)thieno[3,2-b]pyridin-2-yl)methanol] | < 1 µM |
| OCC1Cc2nccc(-c3cc(Cl)cc4c3O[C@@H](c3onc5c3CNCC5)C4)c2O1 (stereo partly drawn) [(7-((R)-5-chloro-2-(4,5,6,7-tetrahydroisoxazolo[4,3-c]pyridin-3-yl)-2,3-dihydrobenzofuran-7-yl)-2,3-dihydrofuro[3,2-b]pyridin-2-yl)methanol] | 10 to 30 µM |
| CCC(O)(CO)c1cc2nccc(-c3cc(Cl)cc4c3O[C@@H](C(=O)N3CCNCC3)C4)c2s1 (stereo partly drawn) [((2R)-5-chloro-7-(2-(1,2-dihydroxybutan-2-yl)thieno[3,2-b]pyridin-7-yl)-2,3-dihydrobenzofuran-2-yl)(piperazin-1-yl)methanone] | < 1 µM |
| O=C([C@H]1Cc2cc(Cl)cc(-c3ccnc4cc(C(O)(CO)CCl)sc34)c2O1)N1CCNCC1 (stereo partly drawn) [((2R)-5-chloro-7-(2-(1-chloro-2,3-dihydroxypropan-2-yl)thieno[3,2-b]pyridin-7-yl)-2,3-dihydrobenzofuran-2-yl)(piperazin-1-yl)methanone] | < 1 µM |
| CC(O)c1cc2nccc(-c3cc(Cl)cc4c3O[C@@H](C(=O)N3CCNCC3)C4)c2s1 (stereo partly drawn) [((2R)-5-chloro-7-(2-(1-hydroxyethyl)thieno[3,2-b]pyridin-7-yl)-2,3-dihydrobenzofuran-2-yl)(piperazin-1-yl)methanone] | < 1 µM |
| CC(O)Cc1cc2nccc(-c3cc(Cl)cc4c3O[C@@H](C(=O)N3CCNCC3)C4)c2s1 (stereo partly drawn) [((2R)-5-chloro-7-(2-(2-hydroxypropyl)thieno[3,2-b]pyridin-7-yl)-2,3-dihydrobenzofuran-2-yl)(piperazin-1-yl)methanone] | < 1 µM |
| CC1(CO)Cc2nccc(-c3cc(Cl)cc4c3O[C@@H](C(=O)N3CCNCC3)C4)c2C1 (stereo partly drawn) [((2R)-5-chloro-7-(6-(hydroxymethyl)-6-methyl-6,7-dihydro-5H-cyclopenta[b]pyridin-4-yl)-2,3-dihydrobenzofuran-2-yl)(piperazin-1-yl)methanone] | < 1 µM |
| CCCC1(CO)Cc2nccc(-c3cc(Cl)cc4c3O[C@@H](C(=O)N3CCNCC3)C4)c2C1 (stereo partly drawn) [((2R)-5-chloro-7-(6-(hydroxymethyl)-6-propyl-6,7-dihydro-5H-cyclopenta[b]pyridin-4-yl)-2,3-dihydrobenzofuran-2-yl)(piperazin-1-yl)methanone] | 1 to 10 µM |

Next, values leading:

| IC50 | SMILES |
| --- | --- |
| 10 to 30 µM | O=C(C1Cc2cc(Cl)cc(-c3ccnc4ccc(Cl)cc34)c2O1)N1CCNCC1 (centres unmarked) [(5-chloro-7-(6-chloroquinolin-4-yl)-2,3-dihydrobenzofuran-2-yl)(piperazin-1-yl)methanone] |
| 1 to 10 µM | COc1ccc2c(-c3cc(Cl)cc4c3OC(C(=O)N3CCNCC3)C4)ccnc2c1 (centres unmarked) [(5-chloro-7-(7-methoxyquinolin-4-yl)-2,3-dihydrobenzofuran-2-yl)(piperazin-1-yl)methanone] |
| 1 to 10 µM | O=C(C1Cc2cc(Cl)cc(-c3ccnc4ccccc34)c2O1)N1CCNCC1 (centres unmarked) [(5-chloro-7-(quinolin-4-yl)-2,3-dihydrobenzofuran-2-yl)(piperazin-1-yl)methanone] |
| 1 to 10 µM | Nc1nccc(-c2cc(Cl)cc3c2OC(C(=O)N2CCNCC2)C3)c1Cl (centres unmarked) [(7-(2-amino-3-chloropyridin-4-yl)-5-chloro-2,3-dihydrobenzofuran-2-yl)(piperazin-1-yl)methanone] |
| 1 to 10 µM | CN(C)[C@H]1CCc2noc(C3Cc4cc(Cl)cc(-c5ccnc6cc(CO)sc56)c4O3)c2C1 (stereo partly drawn) [(7-(5-chloro-2-((S)-5-(dimethylamino)-4,5,6,7-tetrahydrobenzo[c]isoxazol-3-yl)-2,3-dihydrobenzofuran-7-yl)thieno[3,2-b]pyridin-2-yl)methanol] |
| < 1 µM | CN(C)C1CCc2nn(C)c([C@H]3Cc4cc(Cl)cc(-c5ccnc6cc(CO)sc56)c4O3)c2C1 (stereo partly drawn) [(7-((2R)-5-chloro-2-(5-(dimethylamino)-2-methyl-4,5,6,7-tetrahydro-2H-indazol-3-yl)-2,3-dihydrobenzofuran-7-yl)thieno[3,2-b]pyridin-2-yl)methanol] |
| < 1 µM | CN(C)[C@@H]1CCc2noc([C@H]3Cc4cc(Cl)cc(-c5ccnc6cc(CO)sc56)c4O3)c2C1 [(7-((R)-5-chloro-2-((R)-5-(dimethylamino)-4,5,6,7-tetrahydrobenzo[c]isoxazol-3-yl)-2,3-dihydrobenzofuran-7-yl)thieno[3,2-b]pyridin-2-yl)methanol] |
| < 1 µM | CC(O)(CO)c1cc2nccc(-c3cc(Cl)cc4c3O[C@@H](C(=O)N3CCNCC3)C4)c2s1 (stereo partly drawn) [((2R)-5-chloro-7-(2-(1,2-dihydroxypropan-2-yl)thieno[3,2-b]pyridin-7-yl)-2,3-dihydrobenzofuran-2-yl)(piperazin-1-yl)methanone] |
| < 1 µM | CCC(CO)c1cc2nccc(-c3cc(Cl)cc4c3O[C@@H](C(=O)N3CCNCC3)C4)c2s1 (stereo partly drawn) [((2R)-5-chloro-7-(2-(1-hydroxybutan-2-yl)thieno[3,2-b]pyridin-7-yl)-2,3-dihydrobenzofuran-2-yl)(piperazin-1-yl)methanone] |
| < 1 µM | O=C([C@H]1Cc2cc(Cl)cc(-c3ccnc4cc(C(O)CCl)sc34)c2O1)N1CCNCC1 (stereo partly drawn) [((2R)-5-chloro-7-(2-(2-chloro-1-hydroxyethyl)thieno[3,2-b]pyridin-7-yl)-2,3-dihydrobenzofuran-2-yl)(piperazin-1-yl)methanone] |
| < 1 µM | CCC(O)C1Cc2nccc(-c3cc(Cl)cc4c3O[C@@H](C(=O)N3CCNCC3)C4)c2C1 (stereo partly drawn) [((2R)-5-chloro-7-(6-(1-hydroxypropyl)-6,7-dihydro-5H-cyclopenta[b]pyridin-4-yl)-2,3-dihydrobenzofuran-2-yl)(piperazin-1-yl)methanone] |
| < 1 µM | CCC(O)c1cc2ncnc(-c3cc(Cl)cc4c3O[C@@H](C(=O)N3CCNCC3)C4)c2s1 (stereo partly drawn) [((2R)-5-chloro-7-(6-(1-hydroxypropyl)thieno[3,2-d]pyrimidin-4-yl)-2,3-dihydrobenzofuran-2-yl)(piperazin-1-yl)methanone] |
